Data on one molecule can be found in patent US12643877B2, “Substituted tetrahydroisoquinoiline derivative as a D1 positive allosteric modulator” (UCB Biopharma SRL, priority 2019, dated 2026).

The structures appear in SMILES notation. Where “and” joins values, the source holds several entries; their conditions need not be identical. Equal values may be shown once.

Data set [1] deals with T1, dopamine D1 receptor (Homo sapiens, UniProt P21728).
T1 construct: host or cells: LMtk (Ltk-) mouse fibroblast cells
T1 sequence (P21728 whole entry): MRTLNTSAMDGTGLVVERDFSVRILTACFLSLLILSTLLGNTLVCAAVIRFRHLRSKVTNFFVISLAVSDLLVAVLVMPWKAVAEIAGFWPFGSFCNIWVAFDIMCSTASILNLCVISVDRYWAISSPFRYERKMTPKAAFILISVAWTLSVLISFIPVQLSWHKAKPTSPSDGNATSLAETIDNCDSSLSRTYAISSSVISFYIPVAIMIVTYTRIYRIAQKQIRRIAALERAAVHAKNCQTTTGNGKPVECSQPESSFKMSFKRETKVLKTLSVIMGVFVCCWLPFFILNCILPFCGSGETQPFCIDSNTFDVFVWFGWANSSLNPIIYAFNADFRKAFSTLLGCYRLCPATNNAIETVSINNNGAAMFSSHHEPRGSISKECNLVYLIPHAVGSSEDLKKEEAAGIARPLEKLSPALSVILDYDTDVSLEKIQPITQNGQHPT
Put plainly: cAMP HTRF activation assay (absence of dopamine). The format is cell-based. As to conditions: L-M(TK-), 10 μM compound, LMtk cells expressing D1, read-out: % of activation (compared to dopamine maximal response). From the text: (§1) Assays have been designed to measure the effects of compounds in accordance with the present invention in the absence of dopamine (“activation assay”) and in the presence of dopamine (“potentiation assay”).
The activation assay measures the stimulation of the production of cyclic adenosinemonophosphate (cAMP) in the Homogeneous Time Resolved Fluorescent (HTRF) assay, with the maximum increase in cAMP by increasing concentrations of the endogenous agonist, dopamine, defined as 100% activation.
(§2) Cells were cultured at 37° C. in a humidified atmosphere of 5% CO2. […]
The measurement of changes in intracellular cyclic adenosinemonophopshpate (cAMP) was determined using the HTRF cAMP dynamic assay kit from CisBio (Codolet, France). […] The tracer binding is determined by an anti-cAMP antibody labeled with cryptate. The effects of the compound alone (agonism) was determined by performing the assay in the absence of dopamine, whilst the effect of the compound as a positive allosteric modulator (PAM) was determined in the presence of an EC20 concentration of dopamine. […] This is then incubated for a further 60 min at room temperature and changes in HTRF fluorescent emission ratio determined according to manufacturer's instructions using an Envision plate reader (Perkin Elmer, Zaventem, Belgium) with laser excitation. […]
In general terms: In TR-FRET formats the signal depends on donor and acceptor labels being close together.

The target of data set [2] is T1, dopamine D1 receptor. Put plainly: cAMP HTRF potentiation assay (presence of EC20 dopamine). The data set is classed as cell-based.
Text: as §1
The potentiation assay measures the ability of compounds to increase the levels of cAMP produced by a low-threshold concentration of dopamine. The concentration of dopamine used ([EC20]) is designed to produce 20% stimulation compared to the maximal response (100%) seen with increasing the concentration of dopamine. To measure this potentiation increasing concentrations of the compound with the [EC20] of dopamine are incubated and the potentiation is measured as increases in cAMP production and concentration of compound which produces 50% of the potentiation of the cAMP levels is measured.
as §2
The measurement of changes in intracellular cyclic adenosinemonophopshpate (cAMP) was determined using the HTRF cAMP dynamic assay kit from CisBio (Codolet, France). […] The tracer binding is determined by an anti-cAMP antibody labeled with cryptate. The effects of the compound alone (agonism) was determined by performing the assay in the absence of dopamine, whilst the effect of the compound as a positive allosteric modulator (PAM) was determined in the presence of an EC20 concentration of dopamine. […]

Data set [3] deals with T2, human GABAA receptor α1,β2 and γ2 subunits (Homo sapiens, UniProt P14867+P18507+P47870).
T2 construct: expressed in transfected cells; host or cells: CHO-K1 cells
T2 sequence (P14867 28-456): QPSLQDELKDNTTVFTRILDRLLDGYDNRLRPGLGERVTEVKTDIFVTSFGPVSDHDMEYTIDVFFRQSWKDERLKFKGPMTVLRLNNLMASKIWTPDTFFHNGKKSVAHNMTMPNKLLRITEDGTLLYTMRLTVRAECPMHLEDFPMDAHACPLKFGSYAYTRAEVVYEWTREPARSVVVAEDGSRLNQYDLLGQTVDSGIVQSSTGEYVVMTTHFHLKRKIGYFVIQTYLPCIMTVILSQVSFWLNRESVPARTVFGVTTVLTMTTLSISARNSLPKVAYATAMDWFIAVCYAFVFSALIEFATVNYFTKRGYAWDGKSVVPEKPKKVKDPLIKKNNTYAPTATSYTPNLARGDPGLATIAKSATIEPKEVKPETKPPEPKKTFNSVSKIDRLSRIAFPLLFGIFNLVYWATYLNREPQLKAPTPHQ
T2 sequence (P47870 25-512 limits assumed): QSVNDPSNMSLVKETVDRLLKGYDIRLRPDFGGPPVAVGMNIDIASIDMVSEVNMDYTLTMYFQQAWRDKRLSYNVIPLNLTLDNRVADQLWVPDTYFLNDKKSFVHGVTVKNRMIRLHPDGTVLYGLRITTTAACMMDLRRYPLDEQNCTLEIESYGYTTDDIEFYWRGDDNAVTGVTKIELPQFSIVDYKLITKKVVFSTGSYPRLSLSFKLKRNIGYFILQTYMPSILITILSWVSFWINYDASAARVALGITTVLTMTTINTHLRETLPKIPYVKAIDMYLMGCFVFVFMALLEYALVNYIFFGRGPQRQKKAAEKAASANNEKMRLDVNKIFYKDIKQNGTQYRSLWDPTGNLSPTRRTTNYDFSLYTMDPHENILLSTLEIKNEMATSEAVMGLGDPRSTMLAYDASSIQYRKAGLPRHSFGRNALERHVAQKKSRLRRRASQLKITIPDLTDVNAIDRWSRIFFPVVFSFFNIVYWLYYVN
T2 sequence (P18507 40-475): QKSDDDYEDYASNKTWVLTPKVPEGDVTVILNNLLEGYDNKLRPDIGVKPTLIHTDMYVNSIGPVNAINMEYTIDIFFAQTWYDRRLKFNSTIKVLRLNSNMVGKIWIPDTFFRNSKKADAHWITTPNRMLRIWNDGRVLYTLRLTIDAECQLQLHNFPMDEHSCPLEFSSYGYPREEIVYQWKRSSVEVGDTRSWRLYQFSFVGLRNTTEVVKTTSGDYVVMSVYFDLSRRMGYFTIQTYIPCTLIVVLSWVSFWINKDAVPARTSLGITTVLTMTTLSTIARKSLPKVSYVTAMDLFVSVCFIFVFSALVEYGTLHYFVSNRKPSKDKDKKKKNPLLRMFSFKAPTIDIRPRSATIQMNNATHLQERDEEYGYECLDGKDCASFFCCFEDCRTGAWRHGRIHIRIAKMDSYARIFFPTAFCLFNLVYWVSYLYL
Put plainly: Automated patch clamp studies on GABAA receptor cells. The format is cell-based. As to conditions: 10 μM compound; GABA 15 μM; CHO-K1 cells; read-out: percentage of inhibition of the GABAA receptor. The protocol:
CHO-K1 cells stably expressing human GABAA receptor α1,β2 and γ2 subunits were used. The cells were harvested using trypsin and maintained in serum-free medium at room temperature. The cells were washed and re-suspended in extracellular solution before testing.
Experiments on human GABAA (α1β2γ2) channels were conducted using an automated patch clamp assay (IonFlux™ HT). Compounds were tested at 3 concentrations (0.1, 1, and 10 μM) in 3 to 4 cells. The external solution for recording GABAA currents was composed of sodium chloride 137 mM, potassium chloride 4 mM, calcium chloride 1.8 mM, magnesium chloride 1 mM, HEPES 10 mM, and glucose 10 mM. Both external and internal solutions were titrated with NaOH or KOH to obtain a pH of 7.35 or 7.3, respectively. The internal pipette solution contained potassium fluoride 70 mM, potassium chloride 60 mM, sodium chloride 70 mM, HEPES 5 mM, EGTA 5 mM, and Magnesium ATP 4 mM. The final concentration of vehicle used to dilute compounds was 0.33% DMSO in each well. Bicuculline (0.032 to 100 μM) was used as positive control inhibitor. GABA (15 μM) was used as agonist. […]
The compound addition sequence was the following: one addition of the EC80 concentration of GABA was added to establish baseline response. […] Peak inward currents in response to the GABA additions in the presence of a single concentration of compound were measured. […]
Background: Patch clamp records ionic current or voltage across a cell membrane.

The test system of the next data set is CYP3A4. Put plainly: CYP3A4 induction assay in cryopreserved human hepatocytes. The format is in vitro ADME. The protocol: The objective of the human hepatocyte assay is to characterize the induction potential of Compound of formula (I) by measuring the CYP3A4 activities after 3-days of hepatocytes treatment with culture medium alone or culture medium containing increasing concentration of NCE.
To this aim, cryopreserved human hepatocytes from a single donor are seeded on a 48 well collagen coated plate so that the final seeding density is 0.2×10^6 cells/well (final volume per well 0.25 mL). The cells are then incubated in seeding medium at 37° C., 95% humidity, 5% CO2 to allow the cells to attach. […]
For catalytic activity determination, solution of the CYP3A4 probe substrate, midazolam (final concentration 2.5 μM) is prepared in pre warmed assay medium. […] An aliquot of supernatant is diluted with deionised water and levels of 1-hydroxymidazolam is quantified using generic LC MS/MS methods.
The hepatocytes are solubilised in 0.1M sodium hydroxide at room temperature and protein content in each well determined using Pierce™ BCA Protein Assay Kit (Thermo Scientific) using bovine serum albumin as a standard.
The fold-induction (increase in CYP activity) is obtained by taking the ratio of the measured enzymatic activity obtained in hepatocytes treated with Compound of formula (I), over the one obtained in control hepatocytes treated with vehicle. […]

One may read the EC50 as the concentration needed to bring the measured effect to its halfway point. The inhibition is the change of the read-out against control, counted positive when it falls. For the molecule `C[C@H]1c2cccc(C(C)(C)O)c2C[C@H](CO)N1C(=O)Cc1c(Cl)ccc2c1c(Cl)nn2C` [compound of formula (I), 2-(3,5-dichloro-1-methyl-indazol-4-yl)-1-[(1S,3R)-3-(hydroxymethyl)-5-(1-hydroxy-1-methyl-ethyl)-1-methyl-3,4-dihydro-1H-isoquinolin-2-yl]ethanone], the Emax at 10 µM at dopamine D1 receptor [1] was less than 20%. Besides, the “Erel (relative efficacy)” value at dopamine D1 receptor [2] (maximal potentiation relative to dopamine maximum response (100%)) is listed as “about 68%”. Besides, the EC50 at dopamine D1 receptor [2] (potentiation of cAMP in presence of EC20 dopamine (1.1 nM), LMtk cells expressing D1) is ~7.94 nM and < 316 nM. The inhibition at 10 µM in data set [3] was less than 0.1%. The “fold-induction value, times lower than positive control (Rifampicin)” value in the data set with CYP3A4 (compound 1 μM vs Rifampicin 10 μM, 72 h, CYP3A4 activity (midazolam)) is given as “at least 7 times lower”. Besides, in the data set with CYP3A4 (highest fold-induction: compound at highest soluble concentration 3 μM vs Rifampicin 10 μM), the “induction potential, times lower than positive control (Rifampicin)” value is given as “about 4 times lower”.
